The values that follow come from ChEMBL document CHEMBL5154846, “Adjusted degradation of BRD4 S and BRD4 L based on fine structural modifications of the pyrrolopyridone scaffold” (Eur J Med Chem, 2022).

pIC50: −log10 of the molar value. Active and inactive are the calls of the source. The rule behind the calls is not given here.

Test [1] has as its target T1, Bromodomain-containing protein 4 (Homo sapiens, UniProt O60885). Nature of the test: Inhibition of BRD4-BD2 (unknown origin) preincubated for 30 mins followed by substrate addition and measured after 3 hr by HTRF. A general note: TR-FRET usually uses a lanthanide donor and a delayed reading to cut background.
The target in test [2] is T1, Bromodomain-containing protein 4. Nature of the test: Inhibition of BRD4-BD1 (unknown origin) preincubated for 30 mins followed by substrate addition and measured after 3 hr by HTRF assay.
In test [3] the target is Bromodomain-containing protein 3 (Homo sapiens) (UniProt Q15059). Nature of the test: Protac activity at BRD3 in human MV4-11 cells at 100 nM measured after 4 hrs by immunoblot analysis. It counts as cell-based. For orientation: A western blot detects proteins with antibodies after separation by electrophoresis.
Sequence of Bromodomain-containing protein 3 (Homo sapiens) (Q15059 2-726 limits assumed): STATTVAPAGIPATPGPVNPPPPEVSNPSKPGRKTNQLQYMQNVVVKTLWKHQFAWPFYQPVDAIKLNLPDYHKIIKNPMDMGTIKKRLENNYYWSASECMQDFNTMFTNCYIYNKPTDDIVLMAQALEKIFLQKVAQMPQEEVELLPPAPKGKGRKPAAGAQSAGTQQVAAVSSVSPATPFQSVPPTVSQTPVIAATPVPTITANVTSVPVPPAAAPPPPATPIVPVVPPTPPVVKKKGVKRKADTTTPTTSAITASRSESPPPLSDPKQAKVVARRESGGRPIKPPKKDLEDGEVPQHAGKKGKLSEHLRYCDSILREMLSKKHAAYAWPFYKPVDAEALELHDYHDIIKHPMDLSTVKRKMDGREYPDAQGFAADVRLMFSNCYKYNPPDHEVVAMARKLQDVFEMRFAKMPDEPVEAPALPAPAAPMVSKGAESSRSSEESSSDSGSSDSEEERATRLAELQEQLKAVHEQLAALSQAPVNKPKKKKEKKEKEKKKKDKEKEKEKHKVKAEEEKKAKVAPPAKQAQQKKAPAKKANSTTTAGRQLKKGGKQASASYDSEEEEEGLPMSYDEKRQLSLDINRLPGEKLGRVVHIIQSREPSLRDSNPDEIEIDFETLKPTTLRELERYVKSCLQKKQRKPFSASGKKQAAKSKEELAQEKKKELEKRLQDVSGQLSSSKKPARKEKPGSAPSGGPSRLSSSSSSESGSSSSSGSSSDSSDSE
Test [4] shares this target. Nature of the test: Protac activity at BRD3 in human MV4-11 cells at 100 nM measured after 24 hrs by immunoblot analysis. The format is cell-based.
Test [5] deals with Bromodomain-containing protein 2 (Homo sapiens) (UniProt P25440). The test is described as follows: Protac activity at BRD2 in human MV4-11 cells at 100 nM measured after 24 hrs by immunoblot analysis. It counts as cell-based.
Sequence of Bromodomain-containing protein 2 (Homo sapiens) (P25440 whole entry, looked up): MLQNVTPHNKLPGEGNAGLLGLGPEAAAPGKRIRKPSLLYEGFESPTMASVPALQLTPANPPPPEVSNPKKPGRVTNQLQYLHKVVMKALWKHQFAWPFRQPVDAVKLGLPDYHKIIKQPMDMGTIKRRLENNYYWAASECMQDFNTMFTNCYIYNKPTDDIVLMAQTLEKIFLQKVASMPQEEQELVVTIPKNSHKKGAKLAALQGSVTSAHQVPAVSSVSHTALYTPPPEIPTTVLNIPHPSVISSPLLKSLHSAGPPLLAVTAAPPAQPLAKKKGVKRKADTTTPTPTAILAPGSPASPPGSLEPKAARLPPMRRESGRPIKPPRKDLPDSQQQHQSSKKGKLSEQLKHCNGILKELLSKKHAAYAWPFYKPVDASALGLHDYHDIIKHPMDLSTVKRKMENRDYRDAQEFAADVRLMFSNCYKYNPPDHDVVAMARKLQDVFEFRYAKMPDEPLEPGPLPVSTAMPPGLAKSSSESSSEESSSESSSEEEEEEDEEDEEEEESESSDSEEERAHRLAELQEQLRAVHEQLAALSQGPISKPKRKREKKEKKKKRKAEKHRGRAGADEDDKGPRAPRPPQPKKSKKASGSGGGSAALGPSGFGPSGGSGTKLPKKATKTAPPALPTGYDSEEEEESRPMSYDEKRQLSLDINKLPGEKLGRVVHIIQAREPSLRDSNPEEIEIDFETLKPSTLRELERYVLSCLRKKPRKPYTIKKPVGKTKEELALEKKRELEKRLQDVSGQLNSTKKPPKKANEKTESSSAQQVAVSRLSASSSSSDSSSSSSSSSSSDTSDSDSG
Test [6] shares this target. The test is described as follows: Protac activity at BRD2 in human MV4-11 cells at 100 nM measured after 4 hrs by immunoblot analysis. It counts as cell-based.
Test [7] has as its target T1, Bromodomain-containing protein 4. The test is described as follows: Protac activity at BRD4 short isoform in human MV4-11 cells at 100 nM for 24 hrs by immunoblot analysis. It counts as cell-based.
Test [8] has as its system MV4-11. Nature of the test: Antiproliferative activity against human MV4-11 cells incubated for 72 hrs by CCK8 assay. The format is functional, cell-based. The settings on record: MV4-11, 72 h. In general terms: Tetrazolium dyes change colour on reduction, which living cells bring about.
Test [9] concerns the target T1, Bromodomain-containing protein 4. The test is described as follows: Protac activity at BRD4 short isoform in human MV4-11 cells at 100 nM for 12 hrs by immunoblot analysis. It counts as cell-based.
The test system of test [10] is MV4-11. Nature of the test: Anti-proliferative activity in human MV4-11 cells assessed as downregulation of c-myc levels at 100 nM incubated for 24 hrs by western blot analysis. The format is functional, cell-based.
Test [11] deals with MV4-11. Nature of the test: Cell cycle arrest in human MV4-11 cells assessed as accumulation at G2/M phase at 0.1 uM for 24 hrs by PI/RNase staining based flow cytometry analysis. The format is functional.
Test [12] has as its system MV4-11. Nature of the test: Anti-proliferative activity in human MV4-11 cells assessed as downregulation of c-myc levels at 10 to 1000 nM incubated for 4 hrs by western blot analysis. It counts as functional, cell-based. To be noted: dose 10-1000 nM.

Turning to `Cn1cc(-c2ccccc2Oc2ccccc2)c2cc(C(=O)NCCCCNc3cccc4c3C(=O)N(C3CCC(=O)NC3=O)C4=O)[nH]c2c1=O` (stereo unspecified), the pIC50 (usually the IC50 on a negative log10 scale, so that one unit is a factor of ten) in test [1] was 7.07; in test [2], 6.33. Besides, the result in [3], in test [4], in test [5], in [6] and in [7] was Active.

`COc1cc(C(=O)NCCOCCOCCOCCNC(=O)C[C@@H]2N=C(c3ccc(Cl)cc3)c3c(sc(C)c3C)-n3c(C)nnc32)ccc1NC(=O)[C@@H]1N[C@@H](CC(C)(C)C)[C@](C#N)(c2ccc(Cl)cc2F)[C@H]1c1cccc(Cl)c1F`: the outcome in test [7] was Active.

`Cn1cc(-c2ccccc2Oc2ccccc2)c2cc(C(=O)NCCCCC(=O)NCCCCNc3cccc4c3C(=O)N(C3CCC(=O)NC3=O)C4=O)[nH]c2c1=O` (stereo unspecified): the pIC50 in test [1] is 7.61; in [2] it was 6.73. For the same molecule, the result in test [3], in test [4], in test [5], in test [6] and in test [7] was Active.

For `CCNC(=O)c1cc2c(-c3cc(C(C)(C)O)ccc3Oc3c(C)cc(F)cc3C)cn(C)c(=O)c2[nH]1` [ABBV-744], the pIC50 in test [8] was 6.82.

Turning to `CC(C)Oc1ccccc1-c1cn(C)c(=O)c2[nH]c(C(=O)NCc3ccc(C(=O)NCCCCNc4cccc5c4C(=O)N(C4CCC(=O)NC4=O)C5=O)cc3)cc12` (stereo unspecified), the results for the negative logarithm of the IC50 (pIC50) in test [1] and in test [2] were 7.04 and 7.08, respectively. The result in [7] was Active.

As for `C=C(C)c1ccc(Oc2ccccc2)c(-c2cn(C)c(=O)c3[nH]c(C(=O)NCc4ccc(C(=O)NCCCCNc5cccc6c5C(=O)N(C5CCC(=O)NC5=O)C6=O)cc4)cc23)c1` (stereo unspecified), the figures for the pIC50 in test [1] and in [2] were 7.13 and 6.62, respectively. Moreover, the outcome in test [7] was Active.

With `Cn1cc(-c2ccccc2Oc2ccccc2)c2cc(C(=O)NCCCCCC(=O)NCCCCNc3cccc4c3C(=O)N(C3CCC(=O)NC3=O)C4=O)[nH]c2c1=O` (stereo unspecified), the results for the negative-log IC50 (pIC50) in [1] and in test [2] were 7.41 and 6.56, respectively. Further, the result in [3], in test [4], in [5], in test [6] and in [7] was Active.

As for `CC(C)Oc1ccc(C(C)(C)O)cc1-c1cn(C)c(=O)c2[nH]c(C(=O)NCc3ccc(C(=O)NCCCCNc4cccc5c4C(=O)N(C4CCC(=O)NC4=O)C5=O)cc3)cc12` (stereo unspecified), the pIC50 is 7.86 in test [1] and 7.61 in test [2].

As to `Cn1cc(-c2cccc(C(C)(C)O)c2)c2cc(C(=O)NCc3ccc(C(=O)NCCCCNc4cccc5c4C(=O)N(C4CCC(=O)NC4=O)C5=O)cc3)[nH]c2c1=O` (stereo unspecified), the values for the pIC50 in test [1] and in test [2] were 7.14 and 7.34, respectively.

As for `Cn1cc(-c2ccccc2OC2CC2)c2cc(C(=O)NCc3ccc(C(=O)NCCCCNc4cccc5c4C(=O)N(C4CCC(=O)NC4=O)C5=O)cc3)[nH]c2c1=O` (stereo unspecified), the result in test [9] and in [7] was Active. Moreover, the pIC50 is 7.02 in test [1] and 7.27 in test [2].

Consider `Cn1cc(-c2ccccc2Oc2ccccc2)c2cc(C(=O)NCCCCCCNc3cccc4c3C(=O)N(C3CCC(=O)NC3=O)C4=O)[nH]c2c1=O` (stereo unspecified), for which the pIC50 in test [1] is 7.40; in [2], 6.36. Further, the outcome in test [3], in test [4], in test [5], in test [6] and in [7] was Active.

For `Cn1cc(-c2ccccc2Oc2ccccc2)c2cc(C(=O)NCc3ccc(C(=O)NCCCCNc4cccc5c4C(=O)N(C4CCC(=O)NC4=O)C5=O)cc3)[nH]c2c1=O` (stereo unspecified), the result in test [9], in test [3], in test [4], in test [5], in test [6] and in [7] was Active. Also, the pIC50 in test [1] is 7.57; in test [2] it was 7.46.

As for `Cn1cc(-c2ccccc2)c2cc(C(=O)NCc3ccc(C(=O)NCCCCNc4cccc5c4C(=O)N(C4CCC(=O)NC4=O)C5=O)cc3)[nH]c2c1=O` (stereo unspecified), the results for the negative-log IC50 (pIC50) in test [1] and in test [2] were 6.53 and 7.00, respectively.

`Cc1sc2c(c1C)C(c1ccc(Cl)cc1)=N[C@@H](CC(=O)NCCCCCCCCNC(=O)COc1cccc3c1C(=O)N(C1CCC(=O)NC1=O)C3=O)c1nnc(C)n1-2` (stereo partly specified): the result in [10], in test [11], in test [3], in [12], in test [4] and in [5] was Active. Further, the result in test [6] was Active. Besides, in [8], the pIC50 is 7.99.

Regarding `Cn1cc(-c2cc(C(C)(C)O)ccc2Oc2ccccc2)c2cc(C(=O)NCc3ccc(C(=O)NCCCCNc4cccc5c4C(=O)N(C4CCC(=O)NC4=O)C5=O)cc3)[nH]c2c1=O` (stereo unspecified), the pIC50 in [1] was 8.42; in test [2] it was 7.53.

Turning to `Cn1cc(-c2ccccc2Oc2ccccc2)c2cc(C(=O)NCCCCCCC(=O)NCCCCNc3cccc4c3C(=O)N(C3CCC(=O)NC3=O)C4=O)[nH]c2c1=O` (stereo unspecified), the pIC50 in test [1] is 7.45; in test [2], 6.48. Also, the outcome in [3], in [4], in test [5], in [6] and in test [7] was Active.

As for `Cn1cc(-c2cc(C(C)(C)O)ccc2OC2CC2)c2cc(C(=O)NCc3ccc(C(=O)NCCCCNc4cccc5c4C(=O)N(C4CCC(=O)NC4=O)C5=O)cc3)[nH]c2c1=O` (stereo unspecified), the pIC50 in test [1] is 8.11; in [2] it was 7.64.

As for `C=C(C)c1ccc(OC(C)C)c(-c2cn(C)c(=O)c3[nH]c(C(=O)NCc4ccc(C(=O)NCCCCNc5cccc6c5C(=O)N(C5CCC(=O)NC5=O)C6=O)cc4)cc23)c1` (stereo unspecified), the results for the pIC50 in test [1] and in [2] were 7.00 and 6.93, respectively. The outcome in test [7] was Active.
